Measured values from US9024017B2, “Octahydro-cyclopentapyrrolyl antagonists of CCR2” (Janssen Pharmaceutica NV, priority 2012, dated 2015).

Molecular target: T1, CCR2 (Homo sapiens, UniProt P41597)
T1 construct: host or cells: THP-1 (human monocytic cell line)
Experiment: MCP-1 Receptor Binding Assay in THP-1 Cells
Conditions: read-out: MCP1B_v3 IC50
Description: Compounds of the invention were subjected to various representative biological tests. […] MCP-1 Receptor Binding Assay in THP-1 Cells Human monocytic cell line THP-1 cells were obtained from American Type Culture Collection (Manassas, Va., USA). The THP-1 cells were grown in RPMI-1640 (RPMI: Roswell Park Memorial Institute Medium-cell culture growth media) supplemented with 10% fetal bovine serum in a humidified 5% CO2 atmosphere at 37° C. The cell density was maintained between […].
THP-1 (cells were incubated with 0.5 nM ^125I labeled MCP-1 (Perkin-Elmer Life Sciences, Inc. Boston, Mass.) in the presence of varying concentrations of either unlabeled MCP-1 (R & D Systems, Minneapolis, Minn.) or test compound for 2 hours at 30° C. in a 96 well plate. Cells were then harvested onto a filter plate, dried, and 20 μL of Microscint 20 was added to each well. Plates were counted in a TopCount NXT, Microplate Scintillation & Luminescence Counter (Perkin-Elmer Life Sciences, Inc. Boston, Mass.). Blank values (buffer only) were subtracted from all values and drug treated values were compared to vehicle treated values. 1 μM cold MCP-1 was used for nonspecific binding.

T1 sequence (P41597 whole entry): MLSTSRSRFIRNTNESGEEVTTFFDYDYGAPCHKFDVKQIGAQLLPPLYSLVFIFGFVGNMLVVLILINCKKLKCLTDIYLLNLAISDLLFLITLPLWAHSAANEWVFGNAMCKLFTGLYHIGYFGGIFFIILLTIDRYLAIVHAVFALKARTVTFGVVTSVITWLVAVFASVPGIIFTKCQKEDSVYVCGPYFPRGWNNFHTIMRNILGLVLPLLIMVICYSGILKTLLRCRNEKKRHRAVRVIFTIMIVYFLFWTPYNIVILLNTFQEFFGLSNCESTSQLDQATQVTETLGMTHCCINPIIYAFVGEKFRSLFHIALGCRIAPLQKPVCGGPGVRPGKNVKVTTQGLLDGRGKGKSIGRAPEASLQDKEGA

| Structure (SMILES) | IC50 [nM] |
| --- | --- |
| COC1COCCC1N[C@@H]1C[C@H]2CN(C(=S)NCc3ccccc3)C[C@@]2(C(=O)N2CCc3ncc(C(F)(F)F)cc3C2)C1 (relative stereo) [Example 26, (3aR,5R,6aR)-N-Benzyl-5-(((3S*,4S*)-3-methoxytetrahydro-2H-pyran-4-yl)amino)-3a-(3-(trifluoromethyl)-5,6,7,8-tetrahydro-1,6-naphthyridine-6-carbonyl)hexahydrocyclopenta-[c]pyrrole-2(1H)-carbothioamide] | 200 |
| CNC(=S)N1C[C@@H]2C[C@@H](N(C(=S)NC)C3CCOCC3OC)C[C@]2(C(=O)N2CCc3ncc(C(F)(F)F)cc3C2)C1 (relative stereo) [Example 28, (3aR,5R,6aR)-5-(1-((3S*,4S*)-3-Methoxytetrahydro-2H-pyran-4-yl)-3-methylthioureido)-N-methyl-3a-(3-(trifluoromethyl)-5,6,7,8-tetrahydro-1,6-naphthyridine-6-carbonyl)hexahydrocyclopenta[c]pyrrole-2(1H)-carbothioamide] | 250 |
| COC1COCCC1N(C(=S)NCC(C)C)[C@@H]1C[C@H]2CN(C(=S)NCC(C)C)C[C@@]2(C(=O)N2CCc3ncc(C(F)(F)F)cc3C2)C1 (relative stereo) [Example 30, (3aR,5R,6aR)-N-Isobutyl-5-((3S*,4S*)-3-isobutyl-1-(3-methoxytetrahydro-2H-pyran-4-yl)thioureido)-3a-(3-(trifluoromethyl)-5,6,7,8-tetrahydro-1,6-naphthyridine-6-carbonyl)hexahydrocyclopenta[c]pyrrole-2(1H)-carbothioamide] | 90 |
| COC1COCCC1N[C@@H]1C[C@H]2CN(C(=S)n3ccnc3)C[C@@]2(C(=O)N2CCc3ncc(C(F)(F)F)cc3C2)C1 (relative stereo) [Example 31, ((3aR,5R,6aR)-2-(1H-Imidazole-1-carbonothioyl)-5-(((3S*,4S*)-3-methoxytetrahydro-2H-pyran-4-yl)amino)octahydrocyclopenta[c]pyrrol-3a-yl)(3-(trifluoromethyl)-7,8-dihydro-1,6-naphthyridin-6(5H)-yl)methanone] | 80 |
| COC1COCCC1N[C@@H]1C[C@H]2CN(C(=O)Oc3ccccc3)C[C@@]2(C(=O)N2CCc3ncc(C(F)(F)F)cc3C2)C1 (relative stereo) [Example 37, (3aR,5R,6aR)-Phenyl 5-(((3S*,4S*)-3-methoxytetrahydro-2H-pyran-4-yl)amino)-3a-(3-(trifluoromethyl)-5,6,7,8-tetrahydro-1,6-naphthyridine-6-carbonyl)hexahydro-cyclopenta[c]pyrrole-2(1H)-carboxylate] | 150 |
| COC1COCCC1N[C@@H]1C[C@H]2CN(C(=O)OCCN3CCOCC3)C[C@@]2(C(=O)N2CCc3ncc(C(F)(F)F)cc3C2)C1 (relative stereo) [Example 39, (3aR,5R,6aR)-2-Morpholinoethyl 5-(((3S*,4S*)-3-methoxytetrahydro-2H-pyran-4-yl)amino)-3a-(3-(trifluoromethyl)-5,6,7,8-tetrahydro-1,6-naphthyridine-6-carbonyl)hexahydrocyclopenta[c]pyrrole-2(1H)-carboxylate] | 10 |
| CCN(CC)CCOC(=O)N1C[C@@H]2C[C@@H](NC3CCOCC3OC)C[C@]2(C(=O)N2CCc3ccc(C(F)(F)F)cc3C2)C1 (relative stereo) [Example 41, (3aR,5R,6aR)-2-(Diethylamino)ethyl 5-(((3S*,4S*)-3-methoxytetrahydro-2H-pyran-4-yl)amino)-3a-(7-(trifluoromethyl)-1,2,3,4-tetrahydroisoquinoline-2-carbonyl)hexahydrocyclopenta[c]pyrrole-2(1H)-carboxylate] | 10 |
| COC1COCCC1N[C@@H]1C[C@H]2CN(C(=O)OCCC3CCOCC3)C[C@@]2(C(=O)N2CCc3ncc(C(F)(F)F)cc3C2)C1 (relative stereo) [Example 42, (3aR,5R,6aR)-2-(Tetrahydro-2H-pyran-4-yl)ethyl 5-(((3S*,4S*)-3-methoxytetrahydro-2H-pyran-4-yl)amino)-3a-(3-(trifluoromethyl)-5,6,7,8-tetrahydro-1,6-naphthyridine-6-carbonyl)hexahydrocyclopenta[c]pyrrole-2(1H)-carboxylate] | 30 |
| COC1COCCC1N[C@@H]1C[C@H]2CN(C(=O)OCCN3CCCC3)C[C@@]2(C(=O)N2CCc3ncc(C(F)(F)F)cc3C2)C1 (relative stereo) [Example 45, (3aR,5R,6aR)-2-(Pyrrolidin-1-yl)ethyl 5-(((3S*,4S*)-3-methoxytetrahydro-2H-pyran-4-yl)amino)-3a-(3-(trifluoromethyl)-5,6,7,8-tetrahydro-1,6-naphthyridine-6-carbonyl)hexahydrocyclopenta[c]pyrrole-2(1H)-carboxyl] | 70 |
| COC1COCCC1N[C@@H]1C[C@H]2CN(C(=O)OCCN3CCCC3)C[C@@]2(C(=O)N2CCc3ccc(C(F)(F)F)cc3C2)C1 (relative stereo) [Example 46, (3aR,5R,6aR)-2-(Pyrrolidin-1-yl)ethyl 5-(((3S*,4S*)-3-methoxytetrahydro-2H-pyran-4-yl)amino)-3a-(7-(trifluoromethyl)-1,2,3,4-tetrahydroisoquinoline-2-carbonyl)hexahydrocyclopenta[c]pyrrole-2(1H)-carboxylate] | 30 |

The next lines start with the values.

| IC50 [nM] | Structure (SMILES) |
| --- | --- |
| 30 | CNC(=S)N1C[C@@H]2C[C@@H](NC3CCOCC3OC)C[C@]2(C(=O)N2CCc3ncc(C(F)(F)F)cc3C2)C1 (relative stereo) [Example 27, (3aR,5R,6aR)-5-(((3S*,4S*)-3-Methoxytetrahydro-2H-pyran-4-yl)amino)-N-methyl-3a-(3-(trifluoromethyl)-5,6,7,8-tetrahydro-1,6-naphthyridine-6-carbonyl)hexahydrocyclopenta[c]pyrrole-2(1H)-carbothioamide] |
| 30 | COC1COCCC1N[C@@H]1C[C@H]2CN(C(=S)NCC(C)C)C[C@@]2(C(=O)N2CCc3ncc(C(F)(F)F)cc3C2)C1 (relative stereo) [Example 29, (3aR,5R,6aR)-N-Isobutyl-5-(((3S*,4S*)-3-methoxytetrahydro-2H-pyran-4-yl)amino)-3a-(3-(trifluoromethyl)-5,6,7,8-tetrahydro-1,6-naphthyridine-6-carbonyl)hexahydrocyclopenta[c]pyrrole-2(1H)-carbothioamide] |
| 130 | COC1COCCC1N[C@@H]1C[C@H]2CN(S(N)(=O)=O)C[C@@]2(C(=O)N2CCc3ncc(C(F)(F)F)cc3C2)C1 (relative stereo) [Example 32, (3aR,5R,6aR)-5-(((3S*,4S*)-3-Methoxytetrahydro-2H-pyran-4-yl)amino)-3a-(3-(trifluoromethyl)-5,6,7,8-tetrahydro-1,6-naphthyridine-6-carbonyl)hexahydrocyclopenta-[c]pyrrole-2(1H)-sulfonamide] |
| 410 | COC1COCCC1N[C@@H]1C[C@H]2CN(S(=O)(=O)NCc3ccccc3)C[C@@]2(C(=O)N2CCc3ncc(C(F)(F)F)cc3C2)C1 (relative stereo) [Example 33, (3aR,5R,6aR)-N-Benzyl-5-(((3S*,4S*)-3-methoxytetrahydro-2H-pyran-4-yl)amino)-3a-(3-(trifluoromethyl)-5,6,7,8-tetrahydro-1,6-naphthyridine-6-carbonyl)hexahydrocyclopenta[c]pyrrole-2(1H)-sulfonamide] |
| 50 | COC(=O)N1C[C@@H]2C[C@@H](NC3CCOCC3OC)C[C@]2(C(=O)N2CCc3ncc(C(F)(F)F)cc3C2)C1 (relative stereo) [Example 34, (3aR,5R,6aR)-Methyl 5-(((3S*,4S*)-3-methoxytetrahydro-2H-pyran-4-yl)amino)-3a-(3-(trifluoromethyl)-5,6,7,8-tetrahydro-1,6-naphthyridine-6-carbonyl)hexahydrocyclopenta[c]pyrrole-2(1H)-carboxylate] |
| 60 | CCCOC(=O)N1C[C@@H]2C[C@@H](NC3CCOCC3OC)C[C@]2(C(=O)N2CCc3ncc(C(F)(F)F)cc3C2)C1 (relative stereo) [Example 35, (3aR,5R,6aR)-Propyl 5-(((3S*,4S*)-3-methoxytetrahydro-2H-pyran-4-yl)amino)-3a-(3-(trifluoromethyl)-5,6,7,8-tetrahydro-1,6-naphthyridine-6-carbonyl)hexahydro-cyclopenta[c]pyrrole-2(1H)-carboxylate] |
| 560 | COC1COCCC1N[C@@H]1C[C@H]2CN(C(=O)OCC(C)(C)C)C[C@@]2(C(=O)N2CCc3ncc(C(F)(F)F)cc3C2)C1 (relative stereo) [Example 36, (3aR,5R,6aR)-Neopentyl 5-(((3S*,4S*)-3-methoxytetrahydro-2H-pyran-4-yl)amino)-3a-(3-(trifluoromethyl)-5,6,7,8-tetrahydro-1,6-naphthyridine-6-carbonyl)hexahydro-cyclopenta[c]pyrrole-2(1H)-carboxylate] |
| 40 | C=CCOC(=O)N1C[C@@H]2C[C@@H](NC3CCOCC3OC)C[C@]2(C(=O)N2CCc3ncc(C(F)(F)F)cc3C2)C1 (relative stereo) [Example 38, (3aR,5R,6aR)-Allyl 5-(((3S*,4S*)-3-methoxytetrahydro-2H-pyran-4-yl)amino)-3a-(3-(trifluoromethyl)-5,6,7,8-tetrahydro-1,6-naphthyridine-6-carbonyl)hexahydrocyclopenta[c]pyrrole-2(1H)-carboxylate] |
